A short description of the series: Solubility in solvents (stated in words). It is filed as physicochemical. To be noted: statement in words.

Among the data in US20030232999A1, “POLYMETHINE COMPOUND AND NEAR-INFRARED ABSORBING MATERIAL COMPRISING SAME” (priority 2002, published 2003) are solubility in solvents values, retold here.

The structures appear in SMILES notation.

Consider `CCN1/C(=C\C=C2/CCCC(/C=C/C3=[N+](CC)c4ccc(OC)cc4C3(C)C)=C2Cl)C(C)(C)c2cc(OC)ccc21.[I-]` [compound B], for which the solubility in solvents entry is given as “low”.
In the case of `COCCN1/C(=C\C=C2/CCCC(/C=C/C3=[N+](CCOC)c4ccccc4C3(C)C)=C2Cl)C(C)(C)c2ccccc21` [compound A], the solubility in solvents entry is “low”.
